Each structure is given as a SMILES string. Read-outs that look alike come from different tables or passages of the source.

By IC50 is commonly meant the midpoint of a concentration-inhibition curve.

The target of experiment [1] is CDK4/cyclin D1 (Homo sapiens (Human), UniProt P11802). Put plainly: CDK4/cyclin D1 enzymatic activity assay (TR-FRET, phosphorylation of pRb at Ser780). Conditions: 0.3 nM CDK4/cyclin D1, 150 nM biotin-pRb (773-924), 3 μM ATP, 60 min at 22° C.; read-out: Biochemical CDK4 enzyme IC50. The experiment is classed as biochemical. The protocol:
CDK4/Cyclin D1 Enzymatic Activity Assay
An assay for monitoring CDK4/cyclin D1-catalyzed phosphorylation of pRb at the Ser780 site was performed using TR-FRET in a 384-well format, and was used for IC50 determination and kinetic analysis. […] 3 μM ATP was added last to initiate the reaction. The reaction was quenched with 10 μL of 240 mM EDTA-Na (pH 8.0) after 60 min incubation at 22° C.
Human CDK4/cyclin D1 was expressed in Sf21 cells via baculovirus infection.
(Time-resolved FRET reads energy transfer from a long-lived donor to a nearby acceptor.)

The test system of experiment [2] is phosphorylation of pRb at the Ser780 site in JeKo-1 mantle cell lymphoma cells. Put plainly: CDK4 cellular assay: ELISA of pRb phosphorylation at Ser780 in JeKo-1 cells. The experiment is classed as cell-based. Conditions: Homo sapiens. The text has this: Cell-based assay measuring phosphorylation levels of pRb at the Ser780 site using an enzyme-linked immunosorbent assay (ELISA) method (Table 6). JeKo-1, a mantle-cell lymphoma cell line, was selected for use in this assay due to its known translocation and subsequent overexpression of cyclin D1. [Ref: Amin, H. M.; McDonnell, T. J.; Medeiros, L. J.; Rassidakis, G. Z.; Leventaki, V.; O'Connor, S. L.; Keating, M. J.; Lai, R. Characterization of 4 mantle cell lymphoma cell lines—Establishment of an in vitro study model. Arch. Pathol. Lab.
Cells were allowed to adhere overnight. […] 10 μL of the dilution were then transferred to the cell culture plate, resulting in a final concentration range of 10 μM to 2 nM. The incubation was carried out at 37° C. with 5% CO2. All compounds were tested in triplicates at each concentration. […] The plates were placed at 4° C. with vigorous shaking for 5 min to lyse the cells. The resulting lysates contained approximately 1 μg/μL of protein.
Plates were incubated overnight at 4° C. with rocking. […] After shaking for 10 minutes, the Superblock solution was replaced with fresh Superblock and plates were incubated on a shaker for an additional 50 min. After blocking, 30 μL of JeKo-1 cell lysate, containing approximately 10 μg total protein, were added to wells in triplicate. […] For all incubation steps, plates were covered with Uniseal plate sealers. […] Next, 50 μL of a 1:2500 dilution of donkey-anti-rabbit HRP (Promega catalog no. W401B) in PBS/10% Superblock were added, and plates were incubated for 30 min at room temperature on a shaker. Plates were again washed as described above. […] After incubation, 50 μL 2 M sulfuric acid were added to plates to top the reaction, and absorbance was determined on a SpectraMax (Molecular Devices, Sunnydale, Calif.) within 15 minutes at 450 nm. All washes were performed using a Bio-Tek plate washer.
The Total Rb ELISA kit (Invitrogen catalog no. KH00011) was used to determine the levels of total pRb. This kit uses wells precoated with a proprietary total pRb antibody for capture. All reagents listed, with the exception of cell lysate, were included in the kit. The nature of the antibodies used for capture and detection was labeled as proprietary and not disclosed. 10 μg of cell lysate was loaded into the wells and volume adjusted to 50 μL with standard dilution buffer. Plates were sealed with film included in the kit and incubated for 2 h at room temperature on a shaker. Plates are then manually washed three times with 250 μL wash buffer. 50 μL of proprietary primary antibody (pre-conjugated to biotin) was added to wells and incubated for 1 h at room temperature on a shaker. Then plates were again washed as noted above. The secondary antibody (HRP pre-conjugated to Streptavidin) was diluted 1:100 in Streptavidin-HRP diluent buffer and 50 μL was added to each well. Plates were then incubated for 30 min. Afterwards, plates were washed four times with buffer as outlined above. Finally, 50 μL stabilized Chromogen was added per well and plates were incubated for 15 min, at which point 50 μL of stop solution was added. Plates were then read on a Spectramax at 450 nm.
The total pRb levels were then used to adjust the p-pRb % inhibition values to account for any loss of signal due to the absence of the pRb protein itself, and the IC50 values obtained from the adjusted % inhibitions represent normalized cellular p-pRb IC50.
A general note: ELISA stands for enzyme-linked immunosorbent assay.

Experiment [3] has as its target CDK1/cyclin B (Homo sapiens (Human), UniProt P06493). The experiment can be described thus: CDK1/cyclin B enzymatic activity assay (IMAP-FP). The experiment is classed as biochemical. To be noted: […] CDK1/cyclin B, 100 nM Tamra Histone-H1 peptide, 20 μM ATP, 120 min at room temperature; read-out: Biochemical CDK1 enzyme IC50. The source says:
CDK1/Cyclin B Enzymatic Activity Assay
A 384-well microtiter IMAP-FP™ (Molecular Devices Trade Mark Technology) endpoint assay was used for CDK1/cyclin B kinase activity measurements. The same assay was used for IC50 determination of small molecule inhibitors.

The mark [4] stands for this setting: JeKo-1, JeKo-1 cells, p-pRb % inhibition adjusted with total pRb levels, read-out: Normalized cellular ppRb inhibition IC50.
Where [5] appears, read: JeKo-1, JeKo-1 cells, p-pRb Ser780 ELISA, non-normalized, read-out: Cellular ppRb inhibition IC50.
Setting [6] is: JeKo-1 cells, p-pRb % inhibition adjusted with total pRb levels, read-out: Normalized cellular ppRb inhibition IC50.
Setting [7] is: JeKo-1 cells, p-pRb Ser780 ELISA, non-normalized, read-out: Cellular ppRb inhibition IC50.

Chain of CDK1/cyclin B (P06493 whole entry, species assumed): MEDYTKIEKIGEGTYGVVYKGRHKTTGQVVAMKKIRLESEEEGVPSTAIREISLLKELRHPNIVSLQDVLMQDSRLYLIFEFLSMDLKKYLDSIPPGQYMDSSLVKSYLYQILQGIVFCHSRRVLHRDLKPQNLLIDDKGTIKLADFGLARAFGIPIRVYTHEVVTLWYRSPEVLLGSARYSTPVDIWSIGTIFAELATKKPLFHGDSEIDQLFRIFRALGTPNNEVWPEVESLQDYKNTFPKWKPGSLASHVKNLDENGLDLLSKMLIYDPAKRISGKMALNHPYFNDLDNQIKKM
Chain of CDK1/cyclin B (P14635 whole entry partner, species assumed): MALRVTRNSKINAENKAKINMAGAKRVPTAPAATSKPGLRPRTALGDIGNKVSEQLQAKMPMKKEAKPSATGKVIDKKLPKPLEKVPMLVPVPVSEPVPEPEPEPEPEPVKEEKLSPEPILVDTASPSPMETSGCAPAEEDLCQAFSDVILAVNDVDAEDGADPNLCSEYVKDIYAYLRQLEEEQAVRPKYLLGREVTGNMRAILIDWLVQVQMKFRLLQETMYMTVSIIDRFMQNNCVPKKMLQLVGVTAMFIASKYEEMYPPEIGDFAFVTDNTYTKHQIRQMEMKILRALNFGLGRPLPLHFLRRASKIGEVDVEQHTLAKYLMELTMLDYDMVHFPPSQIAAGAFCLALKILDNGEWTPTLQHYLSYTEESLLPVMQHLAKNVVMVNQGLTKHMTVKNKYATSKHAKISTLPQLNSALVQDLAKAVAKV
Chain of CDK4/cyclin D1 (P11802 whole entry): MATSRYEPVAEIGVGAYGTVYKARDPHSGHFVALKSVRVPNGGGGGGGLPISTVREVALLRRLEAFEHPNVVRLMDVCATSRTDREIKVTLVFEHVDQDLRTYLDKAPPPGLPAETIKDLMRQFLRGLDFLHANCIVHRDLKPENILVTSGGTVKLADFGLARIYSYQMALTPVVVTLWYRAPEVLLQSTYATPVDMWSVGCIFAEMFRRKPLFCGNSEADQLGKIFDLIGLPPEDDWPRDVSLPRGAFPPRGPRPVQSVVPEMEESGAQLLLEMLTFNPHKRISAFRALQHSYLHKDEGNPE
Chain of CDK4/cyclin D1 (P24385 whole entry partner): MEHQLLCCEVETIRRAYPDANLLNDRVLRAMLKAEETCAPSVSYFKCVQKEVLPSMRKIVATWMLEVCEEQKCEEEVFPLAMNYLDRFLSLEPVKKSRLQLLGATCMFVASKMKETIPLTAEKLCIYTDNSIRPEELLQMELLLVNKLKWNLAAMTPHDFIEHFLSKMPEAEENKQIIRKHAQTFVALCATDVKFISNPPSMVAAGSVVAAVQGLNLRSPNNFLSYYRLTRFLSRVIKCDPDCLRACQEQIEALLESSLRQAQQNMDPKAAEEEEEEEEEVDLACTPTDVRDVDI

On to `CN(C)C(=O)c1cc2cnc(Nc3ccc(N4CC5(CC6CCC(C5)N6)OC4=O)cn3)nc2n1C1CCCCC1` [Example 94, 7-cyclohexyl-N,N-dimethyl-2-(5-((1R,3r,5S)-2′-oxo-8-azaspiro[bicyclo[3.2.1]octane-3,5′-oxazolidine]-3′-yl)pyridin-2-ylamino)-7H-pyrrolo[2,3-d]pyrimidine-6-carboxamide], for which the 50% inhibitory concentration (IC50) in experiment [1] is 41 to 44 nM; in experiment [2] (setting [4]) it was 34 to 206 nM; in experiment [2] (setting [5]), 25 to 154 nM; in experiment [3] it was more than 15000 nM.

For `CN(C)C(=O)c1cc2cnc(Nc3ccc(N4CC5CCC(CC4=O)N5)cn3)nc2n1C1CCC1` (stereo not drawn) [Example 134, 7-Cyclobutyl-2-[5-(4-oxo-3,9-diaza-bicyclo[4.2.1]non-3-yl)-pyridin-2-ylamino]-7H-pyrrolo[2,3-d]pyrimidine-6-carboxylic acid dimethylamide], the IC50 in experiment [1] is 8 nM; in experiment [2] (setting [4]), 123 nM; in experiment [2] (setting [5]) it was 66 nM; in experiment [3] it was more than 15000 nM.

`CN(C)C(=O)c1cc2cnc(Nc3ccc(C(=O)N4CC5CC5(N)C4)cn3)nc2n1C1CCCC1` (racemic) [Example 14, 2-[5-(1-Amino-3-aza-bicyclo[3.1.0]hexane-3-carbonyl)-pyridin-2-ylamino]-7-cyclopentyl-7H-pyrrolo[2,3-d]pyrimidine-6-carboxylic acid dimethylamide]: the IC50 in experiment [1] is 19 nM; in experiment [2] (setting [4]), 371 nM; in experiment [2] (setting [5]), 133 nM; in experiment [3] it was more than 15000 nM.

For the compound `CNC(=O)c1cc2cnc(Nc3ccc(C(=O)N4CC5CCC(C4)N5)cn3)nc2n1C1CCCC1` [Example 23, 7-Cyclopentyl-2-[5-(3,8-diaza-bicyclo[3.2.1]octane-3-carbonyl)-pyridin-2-ylamino]-7H-pyrrolo[2,3-d]pyrimidine-6-carboxylic acid methylamide], the 50% inhibitory concentration (IC50) in experiment [1] was 1630 nM; in experiment [2] (setting [4]) it was 6770 nM; in experiment [2] (setting [5]), 6770 nM; in experiment [3] it was more than 15000 nM.

`CN(C)C(=O)c1cc2cnc(Nc3ccc(C(=O)N4C[C@@H]5C[C@H]4C[C@H]5O)cn3)nc2n1C1CCCC1` [Example 31, 7-cyclopentyl-2-(5-((1S,4S,5R)-5-hydroxy-2-azabicyclo[2.2.1]heptane-2-carbonyl)pyridin-2-ylamino)-N,N-dimethyl-7H-pyrrolo[2,3-d]pyrimidine-6-carboxamide]: the IC50 was 69 to 81 nM in experiment [1], 497 to 591 nM in experiment [2] (setting [6]), 252 to 352 nM in experiment [2] (setting [7]) and more than 15000 nM in experiment [3].

Take `CN(C)C(=O)c1cc2cnc(Nc3ccc(N4C[C@H]5CC[C@@H](CC4=O)N5CC(F)(F)F)cn3)nc2n1C1CCCC1` [Example 144, 7-cyclopentyl-N, N-dimethyl-2-(5-((1R,6S)-4-oxo-9-(2,2,2-trifluoroethyl)-3,9-diazabicyclo[4.2.1]nonan-3-yl)pyridin-2-ylamino)-7H-pyrrolo[2,3-d]pyrimidine-6-carboxamide]: the IC50 was 19 nM in experiment [1], 49 nM in experiment [2] (setting [6]), 31 nM in experiment [2] (setting [7]) and more than 15000 nM in experiment [3].

On to `CN(C)C(=O)c1cc2cnc(Nc3ccc(C(=O)N4CC5CCC(C4)N5)cn3)nc2n1C1CCC1` [Example 55, 7-Cyclobutyl-2-[5-(3,8-diaza-bicyclo[3.2.1]octane-3-carbonyl)-pyridin-2-ylamino]-7H-pyrrolo[2,3-d]pyrimidine-6-carboxylic acid dimethylamide], for which the IC50 fell in the range of 35 to 164 nM in experiment [2] (setting [6]) and 31 to 112 nM in experiment [2] (setting [7]).

Turning to `CN(C)C(=O)c1cc2cnc(Nc3ccc(C(=O)N4CC5CCC(C4)N5)cn3)nc2n1C1CCN(C2CC2)CC1` [Example 56, 7-(1-cyclopropyl-piperidin-4-yl)-2-[5-(3,8-diaza-bicyclo[3.2.1]octane-3-carbonyl)-pyridin-2-ylamino]-7H-pyrrolo[2,3-d]pyrimidine-6-carboxylic acid dimethylamide], the IC50 in experiment [2] (setting [4]) is 470 nM; in experiment [2] (setting [5]), 395 nM.

As to `CN(C)C(=O)c1cc2cnc(Nc3ccc(C(=O)N4CC[C@@H]5CC[C@H](C4)N5)cn3)nc2n1C1CCCC1` [Example 72, 7-cyclopentyl-2-[5-((1R,6S)-3,9-diaza-bicyclo[4.2.1]nonane-3-carbonyl)-pyridin-2-ylamino]-7H-pyrrolo[2,3-d]pyrimidine-6-carboxylic acid dimethylamide], the IC50 was 13 nM in experiment [1], 112 nM in experiment [2] (setting [6]) and 48 nM in experiment [2] (setting [7]).

As to `CN(C)C(=O)c1cc2cnc(Nc3ccc(N4CC5CCC(CC4=O)N5)cn3)nc2n1-c1ccc(C(C)(C)C#N)cc1` (stereo not drawn) [Example 127, 7-(4-(2-cyanopropan-2-yl)phenyl)-N,N-dimethyl-2-(5-(4-oxo-3,9-diazabicyclo[4.2.1]nonan-3-yl)pyridin-2-ylamino)-7H-pyrrolo[2,3-d]pyrimidine-6-carboxamide], the figures for the IC50 in experiment [2] (setting [6]) and in experiment [2] (setting [7]) were 247 to 1520 nM and 119 to 917 nM, respectively.

As to `CN(C)C(=O)c1cc2cnc(Nc3ccc(N4CCC5(CCCN5)C4=O)cn3)nc2n1C1CCCC1` (stereo not drawn) [Example 113, 7-Cyclopentyl-2-[5-(6-oxo-1,7-diaza-spiro[4,4]non-7-yl)-pyridin-2-ylamino]-7H-pyrrolo[2,3-d]pyrimidin-6-carboxylic acid dimethylamide], the IC50 lay within 17 to 21 nM in experiment [1], 204 to 245 nM in experiment [2] (setting [4]) and 177 to 205 nM in experiment [2] (setting [5]).

On to `CN(C)C(=O)c1cc2cnc(Nc3ccc(C(=O)N4CC[C@H]5CC[C@@H](C4)N5)cn3)nc2n1C1CCCC1` [Example 71, 7-Cyclopentyl-2-[5-((1S,6R)-3,9-diaza-bicyclo[4.2.1]nonane-3-carbonyl)-pyridin-2-ylamino]-7H-pyrrolo[2,3-d]pyrimidine-6-carboxylic acid dimethylamide], for which the IC50 was 5 to 6 nM in experiment [1], 56 nM in experiment [2] (setting [6]) and 31 nM in experiment [2] (setting [7]).

With `CN(C)C(=O)c1cc2cnc(Nc3ccc(C(=O)N4CC5CCCC(C4)N5)cn3)nc2n1C1CCCC1` [Example 52, 7-Cyclopentyl-2-[5-(3,9-diaza-bicyclo[3.3.1]nonane-3-carbonyl)-pyridin-2-ylamino]-7H-pyrrolo[2,3-d]pyrimidine-6-carboxylic acid dimethylamide], the IC50 in experiment [1] was 27 nM; in experiment [2] (setting [6]), 45 to 53 nM; in experiment [2] (setting [7]), 21 to 47 nM.

For `CN(C)C(=O)c1cc2cnc(Nc3ccc(C(=O)N4CCC5CCC(C4)N5)cn3)nc2n1C1CCCC1` (racemic) [Example 69, 7-Cyclopentyl-2-[5-(3,9-diaza-bicyclo[4.2.1]nonane-3-carbonyl)-pyridin-2-ylamino]-7H-pyrrolo[2,3-d]pyrimidine-6-carboxylic acid dimethylamide], the IC50 in experiment [1] was 5 to 18 nM; in experiment [2] (setting [6]), 48 nM; in experiment [2] (setting [7]) it was 24 nM.

The values are drawn from US8957074B2 (Novartis AG, priority 2010, dated 2015).
